In patent US20210308034A1, “PREBIOTIC COMPOSITIONS AND METHODS FOR MAINTAINING A HEALTHY SKIN MICROBIOTA” (KIMBERLY-CLARK WORLDWIDE, INC., priority 2018, published 2021):

Columns and labels:
Type in all cases: cell-based
[1] = system: Corynebacterium minutissimum (ATCC 23348); test: Carbohydrate Screening Test Method (Biolog phenotype microarray), Bacteria Code A; conditions: Pathogenic; carbon microarray plate, OD 600 nm, 36 hr, 33° C.; positive = more than 0.05 OD units above zero; blank cell = not utilized
Excerpt: (§1) After creating desired ratios of various commensal skin bacteria in a healthy skin microbiome, 188 different carbohydrate sources were screened as the next step in determining potential prospects for skin microbiota balancing agents. The screening process was set up to determine which carbohydrate sources promoted commensal and/or pathogenic bacteria as well as to obtain individual and combinations of carbohydrate sources that could serve as microbiota balancing agents that can support or maintain the healthy proportions of commensal skin bacteria of Corynebacterium, Staphylococcus, and Micrococcus. The screening was conducted utilizing Biolog phenotype microarray plates (Hayward, Calif.). Table 1 provides a coded list of the commensal and pathogenic skin bacteria that the carbohydrates were screened against.
(§2) Table 2 provides the results of screening various carbohydrate sources against the commensal and pathogenic bacteria codes listed in Table 1. The Bacteria Codes B, D, E, I, and J are commensal bacteria and are shaded in Table 2 for references purposes. The bacteria codes were each placed in a carbon microarray plate and screened through the Carbohydrate Screening Test Method, as described in the Test Methods section herein. If a particular bacteria code utilized a specific carbohydrate source as described in the Carbohydrate Screening Test Method, then the corresponding cell in Table 2 was marked with a Y (short for “Yes”). […] Many of the carbohydrate sources were utilized by both commensal and pathogenic bacteria, and as such, would not provide an advantage for selective growth of the commensal bacteria. However, some of the carbohydrate sources were only used by commensal bacteria and were identified for further testing as described herein.
(§3) The study employed 10 representative skin bacteria; Staphylococcus epidermidis ATCC 14990, Staphylococcus epidermidis M23864:W2, Staphylococcus aureus ATCC 6538, Staphylococcus aureus ATCC 25904 (Newman), Pseudomonas aeruginosa ATCC 9027, Micrococcus luteus ATCC […], Micrococcus luteus SK58, Klebsiella pneumoniae ATCC BAA-2146, Corynebacterium amycolatum SK46, and Corynebacterium minutissimum ATCC 23348. Cultures were started from freezer bead stocks by placing a single bead into 20 mL of tryptic soy broth (TSB) for all organisms except C. amycolatum SK46 and C. minutissimum ATCC 23348, which were placed into brain heart infusion (BHI) broth. Cultures were grown for about 24 hr at 37° C. except M. luteus ATCC 49732 and M. luteus SK58, which were grown at 30° C. A passage of the culture was made using a sterile swab and streaked onto two M9*2 agar plates to prepare the incubated culture for the phenotype microarray pate according to Table 4. Plates were incubated for about 24 hr at 37° C. except for M. luteus ATCC 49732 and M. luteus SK58, which were incubated at 30° C. for 24 hr.
(§4) All cultures were harvested and washed before inoculation into the carbon microarray plate (BiOLOG, Hayward Calif.), with Biolog Plates PM1 and PM2 each having a source definition of Carbon. The bacteria on the M9*2 agar was suspended via agitation with an inoculating loop in 1 mL of M9*1 media for collection in a 1.7 mL micro centrifuge tube, as noted in Table 4. The bacteria was suspended again in M9*1 media, agitated, and collected into the same 1.7 mL microcentrifuge tube used in the previous step. The tube was centrifuged for 5 minutes at 4,000×G, supernatant decanted, the pellet was resuspended in 1 mL of M9*1 media, and vortex. This washing process was repeated for a total of 4 times.
(§5) A tenfold dilution in M9*1 media was performed using 1 mL of the washed bacterial culture. Of the tenfold dilution 200 μL was placed in an untreated 96-well plate (Falcon, Pasadena Tx.) for an initial optical density (OD) reading at a wavelength of 600 nm. The OD was used to correlate to colony forming units (CFU) per milliliter by using linear regression lines for each organism. […]

[2] = system: Corynebacterium jeikum (ATCC 33033); test: Carbohydrate Screening Test Method (Biolog phenotype microarray), Bacteria Code B; conditions: Commensal; carbon microarray plate, OD 600 nm, 36 hr, 33° C.; positive = more than 0.05 OD units above zero; blank cell = not utilized
In short: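 Strain from M9*2 agar was suspended in M9*1 medium, washed and inoculated into Biolog PM1/PM2 carbon plates. Carbohydrate use was scored yes/no, and growth rate and maximum yield were derived with GrowthRates 2.1, with max yields used for commensal ratios.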

[3] = system: Klebsiella pneumoniae (ATCC BAA-2146); conditions: Pathogenic; carbon microarray plate, OD 600 nm, 36 hr, 33° C.; positive = more than 0.05 OD units above zero; blank cell = not utilized
[4] = system: Micrococcus luteus (SK58); test: Carbohydrate Screening Test Method (Biolog phenotype microarray), Bacteria Code E; conditions: Commensal; carbon microarray plate, OD 600 nm, 36 hr, 33° C.; positive = more than 0.05 OD units above zero; blank cell = not utilized
In short: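 Each commensal strain grown in Biolog carbon phenotype microarray plates with single carbohydrate sources. Growth curves fitted with GrowthRates 2.1 to give growth rate and maximum yield. Max yields used to calculate predicted co-culture ratios between Corynebacterium, Staphylococcus and Micrococcus, compared with desired ratios of 1.3, 1.4 and 1.1.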

[5] = system: Pseudomonas aeruginosa (ATCC 9027); conditions: Pathogenic; carbon microarray plate, OD 600 nm, 36 hr, 33° C.; positive = more than 0.05 OD units above zero; blank cell = not utilized
In short: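 Carbon-source utilisation screen on Biolog PM1/PM2 plates: strain grown in TSB then on M9*2 agar, each ~24 h at 37 °C, washed four times in M9*1 and diluted tenfold. OD600 correlated to CFU/mL; each carbohydrate scored Yes when utilised.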

[6] = system: Staphylococcus aureus (ATCC 6538); test: Carbohydrate Screening Test Method (Biolog phenotype microarray), Bacteria Code G; conditions: Pathogenic; carbon microarray plate, OD 600 nm, 36 hr, 33° C.; positive = more than 0.05 OD units above zero; blank cell = not utilized
Excerpt: as §1, §2, §3, §4, §5

[7] = system: Staphylococcus aureus (ATCC 25904) (Newman); test: Carbohydrate Screening Test Method (Biolog phenotype microarray), Bacteria Code H; conditions: Pathogenic; carbon microarray plate, OD 600 nm, 36 hr, 33° C.; positive = more than 0.05 OD units above zero; blank cell = not utilized
Excerpt: as §1, §2, §3, §4, §5

[8] = system: Staphylococcus epidermidis (ATCC 14990); test: Carbohydrate Screening Test Method (Biolog phenotype microarray), Bacteria Code I; conditions: Commensal; carbon microarray plate, OD 600 nm, 36 hr, 33° C.; positive = more than 0.05 OD units above zero; blank cell = not utilized
Excerpt: as §1, §2, §3, §4, §5

[9] = system: Staphylococcus epidermidis (M23864:W2); test: Carbohydrate Screening Test Method (Biolog phenotype microarray), Bacteria Code J; conditions: Commensal; carbon microarray plate, OD 600 nm, 36 hr, 33° C.; positive = more than 0.05 OD units above zero; blank cell = not utilized
[10] = system: Micrococcus luteus (ATCC 49732); test: Carbohydrate Screening Test Method (Biolog phenotype microarray), Bacteria Code D; conditions: Commensal; carbon microarray plate, OD 600 nm, 36 hr, 33° C.; positive = more than 0.05 OD units above zero; blank cell = not utilized
Excerpt: as §1, §2, §3, §4, §5

OC[C@H]1O[C@H](O)[C@H](O)[C@@H](O)[C@@H]1O [α-D-Glucose]
Y: Carbohydrate Screening Results, Bacteria Code A [1] | Carbohydrate Screening Results, Bacteria Code B [2] | Carbohydrate Screening Results, Bacteria Code C [3] | Carbohydrate Screening Results, Bacteria Code E [4] | Carbohydrate Screening Results, Bacteria Code F [5] | Carbohydrate Screening Results, Bacteria Code G [6] | Carbohydrate Screening Results, Bacteria Code H [7] | Carbohydrate Screening Results, Bacteria Code I [8] | Carbohydrate Screening Results, Bacteria Code J [9]

CO[C@@H]1O[C@H](CO)[C@@H](O)[C@H](O)[C@H]1O [β-Methyl-D-Glucoside]
Y: Carbohydrate Screening Results, Bacteria Code B [2] | Carbohydrate Screening Results, Bacteria Code C [3] | Carbohydrate Screening Results, Bacteria Code E [4] | Carbohydrate Screening Results, Bacteria Code H [7]

O=C(CO)[C@@H](O)[C@H](O)[C@H](O)COP(=O)(O)O [D-Fructose-6-Phosphate]
Y: Carbohydrate Screening Results, Bacteria Code B [2] | Carbohydrate Screening Results, Bacteria Code E [4] | Carbohydrate Screening Results, Bacteria Code G [6] | Carbohydrate Screening Results, Bacteria Code H [7] | Carbohydrate Screening Results, Bacteria Code J [9]

C[C@H](O)C(=O)O [L-Lactic Acid]
Y: Carbohydrate Screening Results, Bacteria Code A [1] | Carbohydrate Screening Results, Bacteria Code B [2] | Carbohydrate Screening Results, Bacteria Code E [4] | Carbohydrate Screening Results, Bacteria Code I [8]

OC[C@@H](O)[C@@H](O)[C@H](O)[C@H](O)CO [D-Mannitol]
Y: Carbohydrate Screening Results, Bacteria Code B [2] | Carbohydrate Screening Results, Bacteria Code C [3] | Carbohydrate Screening Results, Bacteria Code E [4] | Carbohydrate Screening Results, Bacteria Code F [5] | Carbohydrate Screening Results, Bacteria Code G [6] | Carbohydrate Screening Results, Bacteria Code H [7]

OC[C@H]1O[C@@](CO)(O[C@H]2O[C@H](CO)[C@@H](O)[C@H](O)[C@H]2O)[C@@H](O)[C@@H]1O [Sucrose]
Y: Carbohydrate Screening Results, Bacteria Code A [1] | Carbohydrate Screening Results, Bacteria Code B [2] | Carbohydrate Screening Results, Bacteria Code C [3] | Carbohydrate Screening Results, Bacteria Code E [4] | Carbohydrate Screening Results, Bacteria Code F [5] | Carbohydrate Screening Results, Bacteria Code G [6] | Carbohydrate Screening Results, Bacteria Code J [9]

OC[C@H]1O[C@H](O[C@H]2[C@H](O)[C@@H](O)[C@H](O)O[C@@H]2CO)[C@H](O)[C@@H](O)[C@@H]1O [Maltose]
Y: Carbohydrate Screening Results, Bacteria Code B [2] | Carbohydrate Screening Results, Bacteria Code C [3] | Carbohydrate Screening Results, Bacteria Code E [4] | Carbohydrate Screening Results, Bacteria Code F [5] | Carbohydrate Screening Results, Bacteria Code H [7] | Carbohydrate Screening Results, Bacteria Code I [8] | Carbohydrate Screening Results, Bacteria Code J [9]

OC[C@H]1O[C@@H](n2cnc3c(O)ncnc32)[C@H](O)[C@@H]1O [Inosine]
Y: Carbohydrate Screening Results, Bacteria Code B [2] | Carbohydrate Screening Results, Bacteria Code C [3] | Carbohydrate Screening Results, Bacteria Code E [4] | Carbohydrate Screening Results, Bacteria Code H [7]

O=C[C@@H](O)[C@@H](O)[C@H](O)[C@H](O)CO [D-Mannose]
Y: Carbohydrate Screening Results, Bacteria Code A [1] | Carbohydrate Screening Results, Bacteria Code B [2] | Carbohydrate Screening Results, Bacteria Code C [3] | Carbohydrate Screening Results, Bacteria Code E [4] | Carbohydrate Screening Results, Bacteria Code G [6] | Carbohydrate Screening Results, Bacteria Code H [7]

OC[C@H]1O[C@H](O[C@H]2O[C@H](CO)[C@@H](O)[C@H](O)[C@H]2O)[C@H](O)[C@@H](O)[C@@H]1O [D-Trehalose]
Y: Carbohydrate Screening Results, Bacteria Code B [2] | Carbohydrate Screening Results, Bacteria Code C [3] | Carbohydrate Screening Results, Bacteria Code D [10] | Carbohydrate Screening Results, Bacteria Code E [4] | Carbohydrate Screening Results, Bacteria Code F [5] | Carbohydrate Screening Results, Bacteria Code G [6] | Carbohydrate Screening Results, Bacteria Code H [7]

O=C[C@H](O)[C@@H](O)[C@H](O)[C@H](O)COP(=O)(O)O [D-Glucose-6-Phosphate]
Y: Carbohydrate Screening Results, Bacteria Code C [3] | Carbohydrate Screening Results, Bacteria Code E [4] | Carbohydrate Screening Results, Bacteria Code F [5] | Carbohydrate Screening Results, Bacteria Code G [6] | Carbohydrate Screening Results, Bacteria Code I [8] | Carbohydrate Screening Results, Bacteria Code J [9]

Maltotriose
Y: Carbohydrate Screening Results, Bacteria Code A [1] | Carbohydrate Screening Results, Bacteria Code B [2] | Carbohydrate Screening Results, Bacteria Code C [3] | Carbohydrate Screening Results, Bacteria Code E [4] | Carbohydrate Screening Results, Bacteria Code F [5] | Carbohydrate Screening Results, Bacteria Code H [7] | Carbohydrate Screening Results, Bacteria Code I [8] | Carbohydrate Screening Results, Bacteria Code J [9]

Cc1cn([C@H]2C[C@H](O)[C@@H](CO)O2)c(=O)[nH]c1=O [Thymidine]
Y: Carbohydrate Screening Results, Bacteria Code A [1] | Carbohydrate Screening Results, Bacteria Code B [2] | Carbohydrate Screening Results, Bacteria Code E [4]

O=C(CO)[C@@H](O)[C@H](O)[C@H](O)CO [D-Fructose]
Y: Carbohydrate Screening Results, Bacteria Code A [1] | Carbohydrate Screening Results, Bacteria Code B [2] | Carbohydrate Screening Results, Bacteria Code C [3] | Carbohydrate Screening Results, Bacteria Code E [4] | Carbohydrate Screening Results, Bacteria Code G [6] | Carbohydrate Screening Results, Bacteria Code H [7] | Carbohydrate Screening Results, Bacteria Code J [9]
